Molecules are shown by their SMILES. Like-named read-outs stand apart in the source and are kept apart here.

The target of one series is hERG potassium channel (Homo sapiens, UniProt Q12809). The series is described as follows: hERG screening assay (PatchXpress patch clamp, CHO cell line). A general note: Block of hERG is tested as a sign of cardiac risk.
The target of series [1] is wild-type human cardiac sodium channel, hNav1.5 (Homo sapiens, UniProt Q14524). The series is described as follows: Late INa screening assay (late sodium current, PatchXpress whole cell patch clamp). It counts as cell-based. The conditions noted are these: read-out: Late INa % blk. On the technique in general: In patch-clamp work, channel activity is measured electrically.
wild-type human cardiac sodium channel, hNav1.5, sequence (Q14524 whole entry): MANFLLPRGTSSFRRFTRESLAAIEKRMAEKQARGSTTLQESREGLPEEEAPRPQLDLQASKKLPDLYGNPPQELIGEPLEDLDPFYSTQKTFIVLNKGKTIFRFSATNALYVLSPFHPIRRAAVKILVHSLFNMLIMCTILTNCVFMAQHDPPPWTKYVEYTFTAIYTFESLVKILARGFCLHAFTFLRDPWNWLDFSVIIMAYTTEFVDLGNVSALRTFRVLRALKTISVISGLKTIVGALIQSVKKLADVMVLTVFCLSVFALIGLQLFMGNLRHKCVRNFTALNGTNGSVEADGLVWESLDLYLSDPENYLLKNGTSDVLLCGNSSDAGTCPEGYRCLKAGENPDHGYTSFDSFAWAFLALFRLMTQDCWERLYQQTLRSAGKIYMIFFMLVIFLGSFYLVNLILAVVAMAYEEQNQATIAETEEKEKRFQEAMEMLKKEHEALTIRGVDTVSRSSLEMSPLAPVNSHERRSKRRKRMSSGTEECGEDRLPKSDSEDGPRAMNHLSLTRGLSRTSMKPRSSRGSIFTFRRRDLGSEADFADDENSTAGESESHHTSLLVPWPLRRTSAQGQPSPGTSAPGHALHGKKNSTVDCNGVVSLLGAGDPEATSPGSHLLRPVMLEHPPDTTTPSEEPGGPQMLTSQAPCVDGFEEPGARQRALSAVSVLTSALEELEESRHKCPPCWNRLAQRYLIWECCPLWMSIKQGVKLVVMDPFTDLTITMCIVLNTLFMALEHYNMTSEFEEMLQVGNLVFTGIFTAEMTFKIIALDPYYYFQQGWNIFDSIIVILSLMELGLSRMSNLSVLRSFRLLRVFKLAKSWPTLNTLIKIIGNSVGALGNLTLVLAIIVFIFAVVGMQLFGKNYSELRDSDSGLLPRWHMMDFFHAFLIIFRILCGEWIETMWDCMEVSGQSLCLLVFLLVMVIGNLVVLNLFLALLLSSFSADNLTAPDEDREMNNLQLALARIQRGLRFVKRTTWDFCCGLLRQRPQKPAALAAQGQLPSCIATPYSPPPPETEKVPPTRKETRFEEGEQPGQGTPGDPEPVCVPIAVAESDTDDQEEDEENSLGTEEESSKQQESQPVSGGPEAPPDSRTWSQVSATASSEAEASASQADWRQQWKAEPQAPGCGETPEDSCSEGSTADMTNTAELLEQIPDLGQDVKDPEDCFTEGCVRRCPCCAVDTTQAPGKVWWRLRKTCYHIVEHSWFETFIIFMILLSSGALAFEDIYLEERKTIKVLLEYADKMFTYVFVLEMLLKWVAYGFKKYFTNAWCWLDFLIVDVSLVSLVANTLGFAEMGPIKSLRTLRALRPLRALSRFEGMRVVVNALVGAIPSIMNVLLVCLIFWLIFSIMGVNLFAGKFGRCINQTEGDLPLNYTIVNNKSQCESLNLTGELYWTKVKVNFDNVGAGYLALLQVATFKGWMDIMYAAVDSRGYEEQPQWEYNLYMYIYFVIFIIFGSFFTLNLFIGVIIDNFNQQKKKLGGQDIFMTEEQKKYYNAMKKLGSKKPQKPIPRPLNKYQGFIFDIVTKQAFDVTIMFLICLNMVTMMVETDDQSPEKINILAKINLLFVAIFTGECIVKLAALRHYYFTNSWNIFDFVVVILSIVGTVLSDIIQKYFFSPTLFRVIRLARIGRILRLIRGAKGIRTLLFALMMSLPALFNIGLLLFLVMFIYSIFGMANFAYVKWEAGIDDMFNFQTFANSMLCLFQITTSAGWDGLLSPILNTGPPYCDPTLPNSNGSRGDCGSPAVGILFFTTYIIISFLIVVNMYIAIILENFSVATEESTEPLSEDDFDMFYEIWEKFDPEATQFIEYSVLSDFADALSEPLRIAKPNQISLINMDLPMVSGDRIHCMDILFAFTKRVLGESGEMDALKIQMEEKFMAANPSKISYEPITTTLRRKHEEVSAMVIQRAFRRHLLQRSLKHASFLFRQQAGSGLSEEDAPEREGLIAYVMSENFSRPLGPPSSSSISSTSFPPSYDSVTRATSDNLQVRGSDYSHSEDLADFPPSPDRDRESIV

hERG potassium channel, sequence (Q12809 whole entry): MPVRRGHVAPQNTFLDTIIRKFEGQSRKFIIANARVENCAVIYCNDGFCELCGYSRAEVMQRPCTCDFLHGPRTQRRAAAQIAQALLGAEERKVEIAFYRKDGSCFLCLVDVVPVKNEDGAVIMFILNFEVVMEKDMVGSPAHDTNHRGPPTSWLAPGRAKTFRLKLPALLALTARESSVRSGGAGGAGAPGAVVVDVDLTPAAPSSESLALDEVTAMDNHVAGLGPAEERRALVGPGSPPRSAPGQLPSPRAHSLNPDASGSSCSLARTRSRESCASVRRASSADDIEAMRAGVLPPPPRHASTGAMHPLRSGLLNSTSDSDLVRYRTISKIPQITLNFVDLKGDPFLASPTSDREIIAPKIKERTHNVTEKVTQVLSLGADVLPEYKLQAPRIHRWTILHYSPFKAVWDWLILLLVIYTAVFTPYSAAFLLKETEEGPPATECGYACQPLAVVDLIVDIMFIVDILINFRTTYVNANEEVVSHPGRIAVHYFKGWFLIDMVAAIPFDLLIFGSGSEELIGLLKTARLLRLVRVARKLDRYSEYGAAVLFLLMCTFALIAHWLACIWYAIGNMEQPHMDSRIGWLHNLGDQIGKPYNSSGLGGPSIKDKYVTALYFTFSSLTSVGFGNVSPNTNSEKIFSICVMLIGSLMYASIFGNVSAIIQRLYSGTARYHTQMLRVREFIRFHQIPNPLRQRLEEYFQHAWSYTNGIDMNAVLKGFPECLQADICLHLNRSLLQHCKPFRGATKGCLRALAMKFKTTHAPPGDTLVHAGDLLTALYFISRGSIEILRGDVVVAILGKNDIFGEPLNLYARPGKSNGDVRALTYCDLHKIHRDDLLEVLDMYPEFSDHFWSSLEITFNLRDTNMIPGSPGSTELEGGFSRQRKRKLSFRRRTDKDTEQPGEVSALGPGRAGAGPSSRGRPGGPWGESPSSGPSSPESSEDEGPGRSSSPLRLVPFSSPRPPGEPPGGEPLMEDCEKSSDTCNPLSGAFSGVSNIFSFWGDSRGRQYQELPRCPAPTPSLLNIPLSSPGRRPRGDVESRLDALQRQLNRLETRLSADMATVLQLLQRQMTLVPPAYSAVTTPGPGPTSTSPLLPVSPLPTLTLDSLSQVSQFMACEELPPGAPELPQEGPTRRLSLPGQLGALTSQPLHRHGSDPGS

Consider `CCOC(=O)C1=C(CC)Nc2nnnn2C1c1cccc2ccccc12` (centres unmarked) [PT-010, ethyl 5-ethyl-7-(naphthalen-1-yl)-4,7-dihydrotetrazolo[1,5-a]pyrimidine-6-carboxylate], for which the “hERG Patch Clamp hERG % blk” value is reported as 12.5% at hERG potassium channel (1 μM) and 30.0% at hERG potassium channel (10 μM). The inhibition at 10 µM in series [1] (compound at 10 μM) was determined as 36.1%.

With `CCOC(=O)C1=C(C)Nc2nnnn2C1c1csc2ccccc12` (centres unmarked) [PT-017, ethyl 7-(benzo[b]thiophen-3-yl)-5-methyl-4,7-dihydrotetrazolo[1,5-a]pyrimidine-6-carboxylate], the “hERG Patch Clamp hERG % blk” value on hERG potassium channel (1 μM) is given as 10.0%; on hERG potassium channel (10 μM), 23.5%. In series [1] (compound at 10 μM), the inhibition at 10 µM worked out at 45.9%.

Take `CCOC(=O)C1=C(C)Nc2nnnn2C1c1sc2ccccc2c1C` (centres unmarked) [PT-018, ethyl 5-methyl-7-(3-methylbenzo[b]thiophen-2-yl)-4,7-dihydrotetrazolo[1,5-a]pyrimidine-6-carboxylate]: the “hERG Patch Clamp hERG % blk” value at hERG potassium channel (1 μM) was found to be 14.5%; on hERG potassium channel (10 μM), 36.5%. Besides, the inhibition at 10 µM in series [1] came out at 36.5%.

On to `CCOC(=O)C1=C(C)Nc2nnnn2C1c1cc2ccccc2o1` (centres unmarked) [PT-019, ethyl 7-(benzofuran-2-yl)-5-methyl-4,7-dihydrotetrazolo[1,5-a]pyrimidine-6-carboxylate], for which the “hERG Patch Clamp hERG % blk” value on hERG potassium channel (1 μM) turned out to be 10.0%; at hERG potassium channel (10 μM), 26.0%. The inhibition at 10 µM in series [1] (compound at 10 μM) turned out to be 35.7%.

As for `CC1=C(C(=O)OC(C)C)C(c2cccc3ccccc23)n2nnnc2N1` (centres unmarked) [PT-021, isopropyl 5-methyl-7-(naphthalen-1-yl)-4,7-dihydrotetrazolo[1,5-a]pyrimidine-6-carboxylate], the “hERG Patch Clamp hERG % blk” value at hERG potassium channel (1 μM) amounted to 13.0%; on hERG potassium channel (10 μM), 43.5%. In addition, in series [1] (compound at 10 μM), the inhibition at 10 µM stood at 48.2%.

In the case of `CC1=C(C(=O)OCc2ccccc2)C(c2ccccc2-c2ccccc2)n2nnnc2N1` (centres unmarked) [PT-025, benzyl 7-(biphenyl-2-yl)-5-methyl-4,7-dihydrotetrazolo[1,5-a]pyrimidine-6-carboxylate], the “hERG Patch Clamp hERG % blk” value at hERG potassium channel (1 μM) is 11.0%; at hERG potassium channel (10 μM), 53.0%. The inhibition at 10 µM in series [1] (compound at 10 μM) was found to be 78.8%.

In the case of `COc1ccc2ccccc2c1C1C(C(=O)OCc2ccccc2)=C(C)Nc2nnnn21` (centres unmarked) [PT-030, benzyl 7-(2-methoxynaphthalen-1-yl)-5-methyl-4,7-dihydrotetrazolo[1,5-a]pyrimidine-6-carboxylate], the results for the “hERG Patch Clamp hERG % blk” value at hERG potassium channel (1 μM) and on hERG potassium channel (10 μM) were 10.5% and 34.5%, respectively. Also, the inhibition at 10 µM in series [1] (compound at 10 μM) was found to be 66.5%.

Take `CC1=C(C(=O)OCc2ccccc2)C(c2cccc3c2OCO3)n2nnnc2N1` (centres unmarked) [PT-034, benzyl 7-(benzo[d][1,3]dioxol-4-yl)-5-methyl-4,7-dihydrotetrazolo[1,5-a]pyrimidine-6-carboxylate]: the figures for the “hERG Patch Clamp hERG % blk” value on hERG potassium channel (1 μM) and on hERG potassium channel (10 μM) were 14.5% and 56.0%, respectively. Also, the inhibition at 10 µM in series [1] (compound at 10 μM) amounted to 52.4%.

For `CC1=C(C(=O)OCc2ccccc2)C(c2c3ccccc3cc3ccccc23)n2nnnc2N1` (centres unmarked) [PT-039, benzyl 7-(anthracen-9-yl)-5-methyl-4,7-dihydrotetrazolo[1,5-a]pyrimidine-6-carboxylate], the “hERG Patch Clamp hERG % blk” value on hERG potassium channel (1 μM) was 10.0%; at hERG potassium channel (10 μM) it was 27.5%. Also, the inhibition at 10 µM in series [1] (compound at 10 μM) came out at 82.1%.

As for `CC1=C(C(=O)OCc2ccccc2)C(c2csc3ccccc23)n2nnnc2N1` (centres unmarked) [PT-042, benzyl 7-(benzo[b]thiophen-3-yl)-5-methyl-4,7-dihydrotetrazolo[1,5-a]pyrimidine-6-carboxylate], the entries for the “hERG Patch Clamp hERG % blk” value at hERG potassium channel (1 μM) and at hERG potassium channel (10 μM) were 11.0% and 52.5%, respectively. Besides, the inhibition at 10 µM in series [1] (compound at 10 μM) turned out to be 76.5%.

Consider `CC1=C(C(=O)OCc2ccccc2)C(c2sc3ccccc3c2C)n2nnnc2N1` (centres unmarked) [PT-044, benzyl 5-methyl-7-(3-methylbenzo[b]thiophen-2-yl)-4,7-dihydrotetrazolo[1,5-a]pyrimidine-6-carboxylate], for which the “hERG Patch Clamp hERG % blk” value on hERG potassium channel (1 μM) is 16.5%; on hERG potassium channel (10 μM) it was 40.0%. For the same compound, in series [1] (compound at 10 μM), the inhibition at 10 µM came to 70.7%.

Consider `CC1=C(C(=O)O[C@@H](C)c2ccccc2)C(c2cc3ccccc3o2)n2nnnc2N1` (stereo partly drawn) [PT-059, (S)-1-phenylethyl 7-(benzofuran-2-yl)-5-methyl-4,7-dihydrotetrazolo[1,5-a]pyrimidine-6-carboxylate], for which the “hERG Patch Clamp hERG % blk” value at hERG potassium channel (1 μM) worked out at 10.0%; at hERG potassium channel (10 μM), 66.5%.

Regarding `CCOC(=O)C1=C(C)NC(C)=C(C(=O)OCC)C1c1sc2ccccc2c1C` [PT-116, diethyl 2,6-dimethyl-4-(3-methylbenzo[b]thiophen-2-yl)-1,4-dihydropyridine-3,5-dicarboxylate], the figures for the “hERG Patch Clamp hERG % blk” value at hERG potassium channel (1 μM) and on hERG potassium channel (10 μM) were 22.9% and 66.0%, respectively.

Consider `CCOC(=O)C1=C(C)Nc2nnnn2C1c1ccccc1-c1ccc(-c2nnn[nH]2)cc1` (centres unmarked) [PT-500, ethyl 7-(4′-(1H-tetrazol-5-yl)biphenyl-2-yl)-5-methyl-4,7-dihydrotetrazolo[1,5-a]pyrimidine-6-carboxylate], for which the inhibition at 10 µM in series [1] (compound at 10 μM) is 2.7%.

Consider `CCOC(=O)C1=C(C)Nc2nnnn2C1c1ccc(N(C)C)cc1[N+](=O)[O-]` (centres unmarked) [PT-501, ethyl 7-(4-(dimethylamino)-2-nitrophenyl)-5-methyl-4,7-dihydrotetrazolo[1,5-a]pyrimidine-6-carboxylate], for which, in series [1] (compound at 10 μM), the inhibition at 10 µM was determined as 2.5%.

For `CCOC(=O)C1=C(C)Nc2ccnn2C1c1ccc(N(C)C)c2ccccc12` (centres unmarked) [PT-502, ethyl 7-(4-(dimethylamino)naphthalen-1-yl)-5-methyl-4,7-dihydropyrazolo[1,5-a]pyrimidine-6-carboxylate], the inhibition at 10 µM in series [1] (compound at 10 μM) was 27%.

Turning to `CCOC(=O)C1=C(C)Nc2nnnn2C1c1ccccc1-c1ccc(C#N)cc1` (centres unmarked) [PT-503, ethyl 7-(4′-cyanobiphenyl-2-yl)-5-methyl-4,7-dihydrotetrazolo[1,5-a]pyrimidine-6-carboxylate], the inhibition at 10 µM in series [1] (compound at 10 μM) is 29.2%.

For the compound `CCOC(=O)C1=C(C)Nc2nnnn2C1c1ccc(OC)c2ccccc12` (centres unmarked) [PT-504, ethyl 7-(4-methoxynaphthalen-1-yl)-5-methyl-4,7-dihydrotetrazolo[1,5-a]pyrimidine-6-carboxylate], the inhibition at 10 µM in series [1] (compound at 10 μM) worked out at 28.2%.

For the compound `COC(=O)C1=C(C)Nc2cc(C)nn2C1c1nc(C)cs1` (centres unmarked) [PT-507, methyl 2,5-dimethyl-7-(4-methylthiazol-2-yl)-4,7-dihydropyrazolo[1,5-a]pyrimidine-6-carboxylate], in series [1] (compound at 10 μM), the inhibition at 10 µM was 0.2%.

As for `COC(=O)C1=C(C)Nc2cc(C)nn2C1c1cccc2ccccc12` (centres unmarked) [PT-508, methyl 2,5-dimethyl-7-(naphthalen-1-yl)-4,7-dihydropyrazolo[1,5-a]pyrimidine-6-carboxylate], the inhibition at 10 µM in series [1] (compound at 10 μM) came out at 11.6%.

Regarding `COC(=O)C1=C(C)Nc2[nH]nc(C)c2C1c1nc(C)cs1` (centres unmarked) [PT-509, methyl 3,6-dimethyl-4-(4-methylthiazol-2-yl)-4,7-dihydro-1H-pyrazolo[3,4-b]pyridine-5-carboxylate], in series [1] (compound at 10 μM), the inhibition at 10 µM stood at 6.4%.

As for `COC(=O)C1=C(C)Nc2[nH]ncc2C1c1sc(Cl)nc1Cl` (centres unmarked) [PT-510, methyl 4-(2,4-dichlorothiazol-5-yl)-6-methyl-4,7-dihydro-1H-pyrazolo[3,4-b]pyridine-5-carboxylate], the inhibition at 10 µM in series [1] (compound at 10 μM) came out at 19.9%.

For `COC(=O)C1=C(C)Nc2ccnn2C1c1nc(C)cs1` (centres unmarked) [PT-511, methyl 5-methyl-7-(4-methylthiazol-2-yl)-4,7-dihydropyrazolo[1,5-a]pyrimidine-6-carboxylate], the inhibition at 10 µM in series [1] (compound at 10 μM) amounted to 19.5%.

Regarding `COC(=O)C1=C(C)Nc2nnnn2C1c1cccs1` (centres unmarked) [PT-513, methyl 5-methyl-7-(thiophen-2-yl)-4,7-dihydrotetrazolo[1,5-a]pyrimidine-6-carboxylate], the inhibition at 10 µM in series [1] (compound at 10 μM) was 10.5%.

Turning to `COC(=O)C1=C(C)Nc2[nH]ncc2C1c1nc(C)cs1` (centres unmarked) [PT-515, methyl 6-methyl-4-(4-methylthiazol-2-yl)-4,7-dihydro-1H-pyrazolo[3,4-b]pyridine-5-carboxylate], the inhibition at 10 µM in series [1] (compound at 10 μM) came out at 10.8%.

With `CCOC(=O)c1ccc(COc2ccccc2C2C(C(=O)OC)=C(C)Nc3nnnn32)cc1` (centres unmarked) [PT-516, methyl 7-(2-(4-(ethoxycarbonyl)benzyloxy)phenyl)-5-methyl-4,7-dihydrotetrazolo[1,5-a]pyrimidine-6-carboxylate], in series [1] (compound at 10 μM), the inhibition at 10 µM was found to be 20.2%.

As to `COC(=O)C1=C(C)Nc2nnnn2C1c1c(Br)sc2ccc(Cl)cc12` (centres unmarked) [PT-517, methyl 7-(2-bromo-5-chlorobenzo[b]thiophen-3-yl)-5-methyl-4,7-dihydrotetrazolo[1,5-a]pyrimidine-6-carboxylate], in series [1] (compound at 10 μM), the inhibition at 10 µM came out at 43.3%.

As for `COC(=O)C1=C(C)Nc2nnnn2C1c1ccccc1I` (centres unmarked) [PT-519, methyl 7-(2-iodophenyl)-5-methyl-4,7-dihydrotetrazolo[1,5-a]pyrimidine-6-carboxylate], the inhibition at 10 µM in series [1] (compound at 10 μM) worked out at 27.3%.

As for `COC(=O)C1=C(C)Nc2nnnn2C1c1sc2ccccc2c1Br` (centres unmarked) [PT-520, methyl 7-(3-bromobenzo[b]thiophen-2-yl)-5-methyl-4,7-dihydrotetrazolo[1,5-a]pyrimidine-6-carboxylate], in series [1] (compound at 10 μM), the inhibition at 10 µM came out at 78.4%.

As to `COC(=O)C1=C(C)Nc2nnnn2C1c1ccc(-c2ccc(OC)cc2)s1` (centres unmarked) [PT-521, methyl 7-(5-(4-methoxyphenyl)thiophen-2-yl)-5-methyl-4,7-dihydrotetrazolo[1,5-a]pyrimidine-6-carboxylate], the inhibition at 10 µM in series [1] (compound at 10 μM) was 37.5%.

Regarding `COC(=O)C1=C(C)Nc2nnnn2C1c1ccc(Br)s1` (centres unmarked) [PT-522, methyl 7-(5-bromothiophen-2-yl)-5-methyl-4,7-dihydrotetrazolo[1,5-a]pyrimidine-6-carboxylate], the inhibition at 10 µM in series [1] (compound at 10 μM) amounted to 37.7%.

As to `CC1=C(C(=O)OCc2cccs2)C(c2cccc3ccccc23)n2nnnc2N1` (centres unmarked) [PT-525, thiophen-2-ylmethyl 5-methyl-7-(naphthalen-1-yl)-4,7-dihydrotetrazolo[1,5-a]pyrimidine-6-carboxylate], in series [1] (compound at 10 μM), the inhibition at 10 µM was found to be 67.5%.
